Test results as given in US11110082B2, “Tyrosine kinase inhibitors” (Rigel Pharmaceuticals, Inc., priority 2016, dated 2021).

Target: T1, MerTK (Homo sapiens, UniProt Q12866)
T1 construct: Seed HUVECs (10K cells/well) in EBM-2 complete media; host or cells: HUVEC (primary human umbilical vein endothelial cells)
T1 sequence (Q12866 21-999): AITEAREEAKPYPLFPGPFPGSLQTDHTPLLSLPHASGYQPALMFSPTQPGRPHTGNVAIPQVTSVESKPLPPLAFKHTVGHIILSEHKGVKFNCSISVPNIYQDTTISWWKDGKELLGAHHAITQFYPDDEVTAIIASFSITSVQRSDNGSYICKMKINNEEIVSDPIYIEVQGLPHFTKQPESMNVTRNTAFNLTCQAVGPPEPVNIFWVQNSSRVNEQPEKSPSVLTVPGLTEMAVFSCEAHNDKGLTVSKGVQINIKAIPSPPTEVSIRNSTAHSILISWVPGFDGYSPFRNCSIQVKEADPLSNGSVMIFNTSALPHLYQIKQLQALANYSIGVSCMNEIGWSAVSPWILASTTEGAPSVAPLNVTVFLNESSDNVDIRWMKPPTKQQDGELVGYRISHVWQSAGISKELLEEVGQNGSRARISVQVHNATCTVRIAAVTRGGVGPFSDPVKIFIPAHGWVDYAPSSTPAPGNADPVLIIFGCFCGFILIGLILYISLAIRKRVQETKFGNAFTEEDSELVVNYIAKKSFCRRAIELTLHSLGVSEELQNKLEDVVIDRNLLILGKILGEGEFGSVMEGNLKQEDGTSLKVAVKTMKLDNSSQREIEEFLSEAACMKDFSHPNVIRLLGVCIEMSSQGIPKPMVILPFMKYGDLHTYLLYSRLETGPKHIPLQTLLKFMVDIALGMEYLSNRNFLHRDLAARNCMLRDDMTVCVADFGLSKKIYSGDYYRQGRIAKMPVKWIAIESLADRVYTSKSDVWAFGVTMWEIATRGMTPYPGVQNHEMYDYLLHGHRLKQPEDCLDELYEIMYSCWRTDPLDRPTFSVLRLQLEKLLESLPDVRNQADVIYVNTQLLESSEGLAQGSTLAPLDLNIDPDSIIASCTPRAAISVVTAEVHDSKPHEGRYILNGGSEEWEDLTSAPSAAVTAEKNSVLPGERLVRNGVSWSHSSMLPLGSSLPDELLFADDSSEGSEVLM
Experiment: PAKT HTRF-HUVEC assay (pAkt Ser473 HTRF after anti-human MerTK-XL stimulation)
Format: cell-based
Details: HUVEC cells, 1 hour compound, stimulated with anti-human MerTK-XL 1 ug/mL for 10 minutes, read-out: inhibition of MerTK
Description: Example 4: PAKT HTRF-HUVEC Assay Phospho Akt (Ser473) Assay kit-10,000 tests (Cisbio US, 64[…]) HUVEC cells (Lonza, CC-2519) Anti-human MerTK antibody (Clone 125518) (R&D Systems, MAB8912) Method Seed HUVECs (10K cells/well) in EBM-2 complete media (EBM-2 basal medium plus EGM-2 BulletKit supplements) overnight at 37° C., 5% CO2 in Costar 96-well white clear-bottom plates. Remove culture media and starve cells for 3-4 hours in 50 μL/well EBM-2 basal medium. Perform serial dilution of compounds in DMSO from 2.5 mM in 4-fold dilutions, and then dilute 1:125 in EBM-2 basal media. Mix 50 μL/well 2x compounds with 50 μL/well HUVECs in duplicate in Costar 96-well white clear-bottom plates. Incubate plates for 1 hour at 37° C., 5% CO2. Cross-link anti-human MerTK antibody to Biotin-SP-conjugated anti-mouse IgG antibody (1:1) to give final concentrations of 5 ug/mL of anti-human MerTK-XL. Stimulate HUVECs with 25 μL/well 5x anti-human MerTK-XL to give final concentrations of 1 ug/mL for 10 minutes at 37° C., 5% CO2. Completely remove media and lyse HUVECs with 40 uL/WELL per well of Cisbio HTRF 1× lysis buffer. Performed pAkt(Ser473) HTRF assay in ProxiPlate-384 Plus, white 384-shallow well microplate according to the vendor protocol and read plates with a SpectralMax Paradigm plate reader. Enter the HTRF values into Athena (Rigel) for curve fitting, EC50 calculation, and database storage.

SMILES | EC50
CCCCNc1ncc2c3ccc(CN4CCN(C)CC4)cc3c(=O)n([C@H]3CC[C@@](C)(O)CC3)c2n1 [Compound 17, cis-3-(Butylamino)-5-(4-hydroxy-4-methylcyclohexyl)-8-((4-methylpiperazin-1-yl)methyl)pyrimido[4,5-c]isoquinolin-6(5H)-one] | 68 nM
C[C@@H]1CN(c2ccc3c(c2)c(=O)n([C@H]2CC[C@H](O)CC2)c2nc(NCC4CC4)ncc32)[C@@H](C)CN1C [Compound 107, trans-3-((Cyclopropylmethyl)amino)-5-(4-hydroxycyclohexyl)-8-((2S,5R)-2,4,5-trimethylpiperazin-1-yl)pyrimido[4,5-c]isoquinolin-6(5H)-one] | 58.2 nM
CCCCNc1ncc2c3ccc(CN4CCN(C)CC4)cc3c(=O)n([C@H]3CC[C@H](C(=O)N(C)C)CC3)c2n1 [Compound 142, trans-4-(3-(Butylamino)-8-((4-methylpiperazin-1-yl)methyl)-6-oxopyrimido[4,5-c]isoquinolin-5(6H)-yl)-N,N-dimethylcyclohexane-1-carboxamide] | 115 nM
O=c1c2cc(CN3CCNCC3)ccc2c2cnc(NCC3CC3)nc2n1[C@H]1CC[C@H](O)CC1 [Compound 54, trans-3-((Cyclopropylmethyl)amino)-5-(4-hydroxycyclohexyl)-8-(piperazin-1-ylmethyl)pyrimido[4,5-c]isoquinolin-6(5H)-one] | 309 nM
CC1(O)CCC(n2c(=O)c3cc(CN4CCN(C5COC5)CC4)ccc3c3cnc(NCC4CC4)nc32)CC1 (stereo not shown) [Compound 148] | 16.8 nM
CC1(O)CCC(n2c(=O)c3ccccc3c3cnc(NCC4CC4)nc32)CC1 (stereo not drawn) [Compound 121, trans-3-((Cyclopropylmethyl)amino)-5-(4-hydroxy-4-methylcyclohexyl)pyrimido[4,5-c]isoquinolin-6(5H)-one] | 620 nM
CCCCNc1ncc2c3ccc(N4CCC(N5CCCC5)CC4)cc3c(=O)n([C@H]3CC[C@H](O)CC3)c2n1 [Compound 71, trans-3-(Butylamino)-5-(4-hydroxycyclohexyl)-8-(4-(pyrrolidin-1-yl)piperidin-1-yl)pyrimido[4,5-c]isoquinolin-6(5H)-one] | 33.4 nM
O=c1c2cc(CN3CCN(C4COC4)CC3)ccc2c2cnc(NCC3CC3)nc2n1[C@H]1CC[C@H](O)CC1 [Compound 35, trans-3-((Cyclopropylmethyl)amino)-5-(4-hydroxycyclohexyl)-8-((4-(oxetan-3-yl)piperazin-1-yl)methyl)pyrimido[4,5-c]isoquinolin-6(5H)-one] | 46.7 nM
O=c1c2cc(CN3CCN(CC(F)(F)F)CC3)ccc2c2cnc(NCC3CC3)nc2n1[C@H]1CC[C@H](O)CC1 [Compound 152] | 50.7 nM
O=c1c2cc(N3CCN4CCC[C@H]4C3)ccc2c2cnc(NCC3CC3)nc2n1[C@H]1CC[C@H](O)CC1 [Compound 102, trans-3-((Cyclopropylmethyl)amino)-8-((S)-hexahydropyrrolo[1,2-a]pyrazin-2(1H)-yl)-5-(4-hydroxycyclohexyl)pyrimido [4,5-c]isoquinolin-6(5H)-one] | 123 nM
O=c1c2cc(CN3CCC4(CC3)COC4)ccc2c2cnc(NCC3CC3)nc2n1[C@H]1CC[C@H](O)CC1 [Compound 186, trans-8-((2-Oxa-7-azaspiro[3.5]nonan-7-yl)methyl)-3-((cyclopropylmethyl)amino)-5-(4-hydroxycyclohexyl)pyrimido[4,5-c]isoquinolin-6(5H)-one] | 45.4 nM
O=c1c2cc(N3CCN(CC(F)(F)F)CC3)ccc2c2cnc(NCC3CC3)nc2n1[C@H]1CC[C@H](O)CC1 [Compound 168] | 289 nM
CN1CCN(c2ccc3c(c2)c(=O)n([C@H]2CC[C@H](O)CC2)c2nc(NCCC4CC4)ncc32)CC1 [Compound 96, trans-3-((2-Cyclopropylethyl)amino)-5-(4-hydroxycyclohexyl)-8-(4-methylpiperazin-1-yl)pyrimido[4,5-c]isoquinolin-6(5H)-one] | 41.4 nM
O=c1c2cc(CN3CCN4CCC3CC4)ccc2c2cnc(NCC3CC3)nc2n1[C@H]1CC[C@H](O)CC1 [Compound 179] | 115 nM

The next lines start with the values.

EC50 | SMILES
97.7 nM | CCC(F)(F)CNc1ncc2c3ccc(CN4CCC5(CC4)COC5)cc3c(=O)n([C@H]3CC[C@H](O)CC3)c2n1 [Compound 197, trans-8-((2-Oxa-7-azaspiro[3.5]nonan-7-yl)methyl)-3-((2,2-difluorobutyl)amino)-5-(4-hydroxycyclohexyl)pyrimido[4,5-c]isoquinolin-6(5H)-one]
85.6 nM | O=c1c2cc(CN3CCC4(CC3)COC4)ccc2c2cnc(NC3CC(F)(F)C3)nc2n1[C@H]1CC[C@H](O)CC1 [Compound 210, trans-8-((2-Oxa-7-azaspiro[3.5]nonan-7-yl)methyl)-3-((3,3-difluorocyclobutyl)amino)-5-(4-hydroxycyclohexyl)pyrimido[4,5-c]isoquinolin-6(5H)-one]
14.3 nM | CC(C)CCNc1ncc2c3ccc(CN4CCN(c5ccncc5)CC4)cc3c(=O)n([C@H]3CC[C@H](O)CC3)c2n1 [Compound 223, trans-5-(4-Hydroxycyclohexyl)-3-(isopentylamino)-8-((4-(pyridin-4-yl)piperazin-1-yl)methyl)pyrimido[4,5-c]isoquinolin-6(5H)-one]
33.6 nM | O=c1c2cc(CN3CCN(c4ccncc4)CC3)ccc2c2cnc(NCC3CC3)nc2n1[C@H]1CC[C@H](O)CC1 [Compound 194]
22.5 nM | O=c1c2cc(CN3CCN(c4ccncn4)CC3)ccc2c2cnc(NCC3CC3)nc2n1[C@H]1CC[C@H](O)CC1 [Compound 216, trans-3-((Cyclopropylmethyl)amino)-5-(4-hydroxycyclohexyl)-8-((4-(pyrimidin-4-yl)piperazin-1-yl)methyl)pyrimido[4,5-c]isoquinolin-6(5H)-one]
11300 nM | O=C(O)C1CCN(Cc2ccc3c(c2)c(=O)n([C@H]2CC[C@H](O)CC2)c2nc(NCC4CC4)ncc32)CC1 [Compound 200, trans-1-((3-((Cyclopropylmethyl)amino)-5-(4-hydroxycyclohexyl)-6-oxo-5,6-dihydropyrimido[4,5-c]isoquinolin-8-yl)methyl)piperidine-4-carboxylic acid]
220 nM | CCCCNc1ncc2c3ccc(CN4CCN(C)CC4)cc3c(=O)n([C@H]3CC[C@H](NCC(N)=O)C3)c2n1 [Compound 237, 2-(((1S,3S)-3-(3-(butylamino)-8-((4-methylpiperazin-1-yl)methyl)-6-oxopyrimido[4,5-c]isoquinolin-5(6H)-yl)cyclopentyl)amino)acetamide]
4040 nM | CN1CCN(Cc2ccc3c(c2)c(=O)n(C2CCN(C(=O)CC#N)CC2)c2nc(NCC4CC4)ncc32)CC1 [Compound 192]
240 nM | CN1CCN(Cc2ccc3c(c2)c(=O)n([C@H]2CC[C@H](O)CC2)c2nc(NC4CC4)ncc32)CC1 [Compound 196, trans-3-(Cyclopropylamino)-5-(4-hydroxycyclohexyl)-8-((4-methylpiperazin-1-yl)methyl)pyrimido[4,5-c]isoquinolin-6(5H)-one]
13.2 nM | CCC(F)(F)CNc1ncc2c3ccc(CN4CCN(C(C)(C)C)CC4)cc3c(=O)n([C@H]3CC[C@H](O)CC3)c2n1 [Compound 198, trans-8-((4-(tert-Butyl)piperazin-1-yl)methyl)-3-((2,2-difluorobutyl)amino)-5-(4-hydroxycyclohexyl)pyrimido[4,5-c]isoquinolin-6(5H)-one]
11300 nM | CN1CCN(Cc2ccc3c(c2)c(=O)n(C2CCN(C(=O)OC(C)(C)C)CC2)c2nc(NCC4CC4)ncc32)CC1 [Compound 188]
